Laboratory results: patent publication US10787571B2, “Oxidation color developable compound and oxidation color development reagent” (DOJINDO LABORATORIES, priority 2017, dated 2020)

Tests used:
[1] = Solution stability under photo irradiation (optical stability); assay type: physicochemical; details: 0.25 mM in 50 mM MES buffer (pH 6.5), under fluorescent lamp, temporal change in absorbance at 650 nm; FIG. 1
Experimental: Solution stability under photo irradiation was tested as follows. Each sample solution of Compound A, B, C and D according to the invention and DA-67 was prepared with 50 mM MES buffer (pH 6.5) in the concentration of 0.25 mM. Temporal change in the absorbance at 650 nm of each reagent prepared placed under fluorescent lamp was monitored.

[2] = Accelerated stability in the quantification of UA (uric acid); assay type: physicochemical; details: stored at 40° C., day 7, 14, 21 and 28; low concentration region of UA (2.1 mg/dL); FIG. 14
Experimental: At day 7, 14, 21 and 28, the reagents (wrapped with aluminum foil) stored in a chamber at 40° C. were taken out and brought back to room temperature. Also, the samples were taken out of a freezing chamber and naturally thawed at room temperature. They were mixed on a vortex mixer and used for the measurement. The absorbance was measurement similarly to the measurement of the linearity.

[3] = general statement on the conventional reagent; cited from earlier work

SMILES | optical stability [1] | order of accelerated stabilities [2] | solubility in water (stated drawback) [3]
CN(C)c1ccc2c(c1)Sc1cc(N(C)C)ccc1N2C(=O)NCCS(=O)(=O)O [Compound A] | DA-67 ≃Compound B according to the invention≈Compound C according to the invention<Compound A according to the invention<Compound D according to the invention | Compound A according to the invention>Compound D according to the invention≈DA-67>Compound B according to the invention>Compound C according to the invention | –
CN(C)c1ccc2c(c1)Sc1cc(N(C)C)ccc1N2C(=O)NCCC(=O)O [Compound B] | DA-67 ≃Compound B according to the invention≈Compound C according to the invention<Compound A according to the invention<Compound D according to the invention | Compound A according to the invention>Compound D according to the invention≈DA-67>Compound B according to the invention>Compound C according to the invention | –
CN(C)c1ccc2c(c1)Sc1cc(N(C)C)ccc1N2C(=O)NCC(=O)NCC(=O)O [Compound D] | DA-67 ≃Compound B according to the invention≈Compound C according to the invention<Compound A according to the invention<Compound D according to the invention | Compound A according to the invention>Compound D according to the invention≈DA-67>Compound B according to the invention>Compound C according to the invention | –
CN(C)c1ccc2c(c1)Sc1cc(N(C)C)ccc1N2C(=O)NCC(=O)O [DA-67, reference compound] | DA-67 ≃Compound B according to the invention≈Compound C according to the invention<Compound A according to the invention<Compound D according to the invention | Compound A according to the invention>Compound D according to the invention≈DA-67>Compound B according to the invention>Compound C according to the invention | poor solubility in water
